Measured values published in patent US9113629B2, “4-amino-6-(4-substituted-phenyl)-picolinates and 6-amino-2-(4-substituted-phenyl)-pyrimidine-4-carboxylates and their use as herbicides” (DOW AGROSCIENCES LLC, priority 2013, dated 2015).
Where two headings read alike, the source gives them in different places.

What was measured:
Experiment in all cases: Post-emergent Test III, herbicidal activity in wheat and barley
Type in all cases: in vivo
[1] = system: APESV: bentgrass (Apera spica-venti); conditions: for pest or weed control at 35 g/ha / pest or weed control at 70 g/ha / pest or weed control at 140 g/ha: Apera spica-venti, post-emergence, 504 h, read-out: Visual Growth Reduction (%) 21 Days After Application APESV; for pest or weed control at 35 g/ha: 35 g ai/ha; for pest or weed control at 70 g/ha: 70 g ai/ha; for GR50 APESV / GR80 APESV: probit analysis; for pest or weed control at 140 g/ha: 140 g ai/ha
Method in brief: (§1)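 Plants at the second to third true-leaf stage, grown in a greenhouse at about 18/17 °C with a 14 h photoperiod, were sprayed post-emergence at 187 L/ha with the high rate and ½× to 1/16× serial dilutions in an acetone/DMSO/crop-oil/surfactant carrier. Injury was rated visually at 21 d on a 0–100% scale, and GR20–GR90 were derived by probit analysis.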

[2] = system: HORSS: barley, including spring and winter (Hordeum vulgare); conditions: Table 9, 21 d; for pest or weed control at 35 g/ha / pest or weed control at 70 g/ha / pest or weed control at 140 g/ha: Hordeum vulgare, post-emergence, 504 h, post-emergent, read-out: Visual Growth Reduction (%) 21 Days After Application HORSS; for pest or weed control at 35 g/ha: 35 g ai/ha; for pest or weed control at 70 g/ha: 70 g ai/ha; for GR20 HORSS: dose for 20 percent growth reduction, probit analysis; for pest or weed control at 140 g/ha: 140 g ai/ha
Method in brief: as §1

[3] = system: KCHSC: kochia (Kochia scoparia); conditions: for pest or weed control at 35 g/ha / pest or weed control at 70 g/ha / pest or weed control at 140 g/ha: Bassia scoparia, post-emergence, 504 h, read-out: Visual Growth Reduction (%) 21 Days After Application KCHSC; for pest or weed control at 35 g/ha: 35 g ai/ha; for pest or weed control at 70 g/ha: 70 g ai/ha; for GR50 KCHSC / GR80 KCHSC: probit analysis; for pest or weed control at 140 g/ha: 140 g ai/ha
Method in brief: as §1

[4] = system: SETVI: green foxtail (Setaria viridis); conditions: Table 9, 21 d; for pest or weed control at 35 g/ha / pest or weed control at 70 g/ha / pest or weed control at 140 g/ha: Setaria viridis, post-emergence, 504 h, post-emergent, read-out: Visual Growth Reduction (%) 21 Days After Application SETVI; for pest or weed control at 35 g/ha: 35 g ai/ha; for pest or weed control at 70 g/ha: 70 g ai/ha; for GR50 SETVI: dose for 50 percent growth reduction; for GR50 SETVI / GR80 SETVI: probit analysis; for GR80 SETVI: dose for 80 percent growth reduction; for pest or weed control at 140 g/ha: 140 g ai/ha
Method in brief: as §1

[5] = system: TRZSS: wheat, including spring and winter (Triticum aestivum); conditions: Table 9, 21 d; for GR20 TRZSS: dose for 20 percent growth reduction, probit analysis; for pest or weed control at 35 g/ha / pest or weed control at 70 g/ha / pest or weed control at 140 g/ha: Triticum aestivum, post-emergence, 504 h, post-emergent, read-out: Visual Growth Reduction (%) 21 Days After Application TRZSS; for pest or weed control at 35 g/ha: 35 g ai/ha; for pest or weed control at 70 g/ha: 70 g ai/ha; for pest or weed control at 140 g/ha: 140 g ai/ha
Method in brief: as §1

[6] = system: LAMSS; conditions: for pest or weed control at 35 g/ha / pest or weed control at 70 g/ha / pest or weed control at 140 g/ha: post-emergence, 504 h, read-out: Visual Growth Reduction (%) 21 Days After Application LAMSS; for pest or weed control at 35 g/ha: 35 g ai/ha; for pest or weed control at 70 g/ha: 70 g ai/ha; for pest or weed control at 140 g/ha: 140 g ai/ha; for GR50 LAMSS / GR80 LAMSS: probit analysis, 21 days after application; for GR50 LAMSS: dose for growth reduction of 50 percent; for GR80 LAMSS: dose for growth reduction of 80 percent
Method in brief: as §1

[7] = system: MATSS: scented mayweed (Matricaria chamomilla), pineappleweed (Matricaria matricarioides); conditions: for pest or weed control at 35 g/ha / pest or weed control at 70 g/ha / pest or weed control at 140 g/ha: Matricaria chamomilla, post-emergence, 504 h, read-out: Visual Growth Reduction (%) 21 Days After Application MATSS; for pest or weed control at 35 g/ha: 35 g ai/ha; for pest or weed control at 70 g/ha: 70 g ai/ha; for pest or weed control at 140 g/ha: 140 g ai/ha; for GR50 MATSS / GR80 MATSS: probit analysis, 21 days after application; for GR50 MATSS: dose for growth reduction of 50 percent; for GR80 MATSS: dose for growth reduction of 80 percent
Method in brief: as §1

[8] = Table 9, dose for 50 percent growth reduction, 21 d
[9] = Table 9, dose for 80 percent growth reduction, 21 d
[10] = dose for growth reduction of 50 percent, 21 days after application
[11] = dose for growth reduction of 80 percent, 21 days after application

SMILES	pest or weed control at 35 g/ha ([1]; Table 9, post-emergent, 21 d) [%]	pest or weed control at 70 g/ha ([1]; Table 9, post-emergent, 21 d) [%]	GR50 APESV [1, 8] [g ai/ha]	GR80 APESV [1, 9] [g ai/ha]	pest or weed control at 35 g/ha [2] [%]	pest or weed control at 70 g/ha [2] [%]	GR20 HORSS [2] [g ai/ha]	pest or weed control at 35 g/ha ([3]; Table 9, post-emergent, 21 d) [%]	pest or weed control at 70 g/ha ([3]; Table 9, post-emergent, 21 d) [%]	GR50 KCHSC [3, 8] [g ai/ha]	GR80 KCHSC [3, 9] [g ai/ha]	pest or weed control at 35 g/ha [4] [%]	pest or weed control at 70 g/ha [4] [%]	GR50 SETVI [4] [g ai/ha]	GR80 SETVI [4] [g ai/ha]	GR20 TRZSS [5] [g ai/ha]	pest or weed control at 35 g/ha [5] [%]	pest or weed control at 70 g/ha [5] [%]	other results
C#Cc1ccc(-c2nc(N)c(OC)c(C(=O)O)n2)cc1 [Compound 28]	0 to 29	0 to 29	>140	>140	0 to 29	30 to 44	43	0 to 29	30 to 44	88	>140	0 to 29	0 to 29	>140	>140	17	30 to 44	60 to 74	
COC(=O)c1nc(-c2ccc(Br)cc2F)nc(N)c1OC [Compound 35]	0 to 29	30 to 44	113	>140	60 to 74	60 to 74	8	75 to 84	85 to 94	8	37	0 to 29	30 to 44	79	>140	2	75 to 84	75 to 84	
COc1c(N)nc(-c2ccc(Br)cc2F)nc1C(=O)O [Compound 46]	0 to 29	0 to 29	>140	>140	60 to 74	60 to 74	8	75 to 84	85 to 94	10	45	0 to 29	30 to 44	>140	>140	1	75 to 84	75 to 84	pest or weed control at 140 g/ha ([1]; Table 9, post-emergent, 21 d): 45 to 59%; pest or weed control at 140 g/ha [2]: 85 to 94%; pest or weed control at 140 g/ha ([3]; Table 9, post-emergent, 21 d): 85 to 94%; pest or weed control at 140 g/ha [4]: 30 to 44%; pest or weed control at 140 g/ha [5]: 85 to 94%
C#Cc1ccc(-c2nc(N)c(OC)c(C(=O)O)n2)c(F)c1F [Compound 154]	0 to 29	0 to 29	>140	>140	0 to 29	0 to 29	81	0 to 29	0 to 29	57	93	30 to 44	60 to 74	56	109	49	0 to 29	30 to 44	pest or weed control at 140 g/ha ([1]; Table 9, post-emergent, 21 d): 0 to 29%; pest or weed control at 140 g/ha [2]: 45 to 59%; pest or weed control at 140 g/ha ([3]; Table 9, post-emergent, 21 d): 0 to 29%; pest or weed control at 140 g/ha [4]: 75 to 84%; pest or weed control at 140 g/ha [5]: 45 to 59%
Nc1cc(-c2ccc(Br)cc2)nc(C(=O)O)c1Cl [Compound 168]	75 to 84	85 to 94	21	57	85 to 94	95 to 100	1	95 to 100	95 to 100	5	15	45 to 59	60 to 74	28	70	1	85 to 94	95 to 100	
COC(=O)c1nc(-c2ccc(F)c(F)c2F)c(F)c(N)c1Cl [Compound 186]																			pest or weed control at 35 g/ha [1]: 0 to 29%; pest or weed control at 70 g/ha [1]: 0 to 29%; pest or weed control at 140 g/ha [1]: 0 to 29%; GR50 APESV [1, 10]: >140 g ai/ha; GR80 APESV [1, 11]: >140 g ai/ha; pest or weed control at 35 g/ha [3]: 60 to 74%; pest or weed control at 70 g/ha [3]: 60 to 74%; pest or weed control at 140 g/ha [3]: 60 to 74%; GR50 KCHSC [3, 10]: 1 g ai/ha; GR80 KCHSC [3, 11]: >140 g ai/ha; pest or weed control at 35 g/ha [6]: 75 to 84%; pest or weed control at 70 g/ha [6]: 85 to 94%; pest or weed control at 140 g/ha [6]: 85 to 94%; GR50 LAMSS [6]: 1 g ai/ha; GR80 LAMSS [6]: 25 g ai/ha; pest or weed control at 35 g/ha [7]: 0 to 29%; pest or weed control at 70 g/ha [7]: 0 to 29%; pest or weed control at 140 g/ha [7]: 0 to 29%; GR50 MATSS [7]: >140 g ai/ha; GR80 MATSS [7]: >140 g ai/ha
COC(=O)c1nc(-c2ccc(F)cc2)c(F)c(N)c1Cl [Compound 204]																			pest or weed control at 35 g/ha [1]: 0 to 29%; pest or weed control at 70 g/ha [1]: 30 to 44%; pest or weed control at 140 g/ha [1]: 60 to 74%; GR50 APESV [1, 10]: 106 g ai/ha; GR80 APESV [1, 11]: >140 g ai/ha; pest or weed control at 35 g/ha [3]: 85 to 94%; pest or weed control at 70 g/ha [3]: 95 to 100%; pest or weed control at 140 g/ha [3]: 95 to 100%; GR50 KCHSC [3, 10]: 2 g ai/ha; GR80 KCHSC [3, 11]: 9 g ai/ha; pest or weed control at 35 g/ha [6]: 85 to 94%; pest or weed control at 70 g/ha [6]: 95 to 100%; pest or weed control at 140 g/ha [6]: 95 to 100%; GR50 LAMSS [6]: 1 g ai/ha; GR80 LAMSS [6]: 8 g ai/ha; pest or weed control at 35 g/ha [7]: 0 to 29%; pest or weed control at 70 g/ha [7]: 0 to 29%; pest or weed control at 140 g/ha [7]: 0 to 29%; GR50 MATSS [7]: >140 g ai/ha; GR80 MATSS [7]: >140 g ai/ha
